The text below walks through data of ChEMBL document CHEMBL3351580, “Pyrano-isochromanones as IL-6 inhibitors: synthesis, in vitro and in vivo antiarthritic activity” (J Med Chem, 2014).

The nature of data set [1]: Therapeutic index, ratio of cytotoxic IC50 for human THP1 cells by MTT assay to IC50 for inhibition of LPS-induced IL6 production in human THP1 cells. It counts as cell-based, THP-1. The note with it: read-out: Ratio IC50.
Data set [2] concerns Mus musculus. Briefly: Antiinflammatory activity in BALB/c mouse assessed as serum TNFalpha level at 10 mg/kg, po qd for 5 days followed by LPS challenge 1 hr after last compound dose on fifth day and measured 4 hrs post LPS challenge by ELISA method (reference value: 717 +/- 218 pg/mL). It counts as functional.
For data set [3], the system named is Mus musculus. Briefly: Antiarthritic activity in DBA/1J mouse collagen-induced arthritis model assessed as reduction in paw swelling at 30 mg/kg, po administered once daily for 49 days starting from onset of disease. Format: functional. The note with it: 1176 h.
The test system of data set [4] is Mus musculus. Briefly: Antiarthritic activity in DBA/1J mouse collagen-induced arthritis model assessed as reduction in anticollagen antibody IgG2a level at 3 to 30 mg/kg, po administered once daily for 49 days starting from onset of disease and measured after 14 days of disease onset by ELISA method. It counts as functional, organism-based.
Data set [5] deals with Mus musculus. The data set is described as follows: Antiinflammatory activity in BALB/c mouse assessed as serum nitric oxide level at 10 mg/kg, po qd for 5 days followed by LPS challenge 1 hr after last compound dose on fifth day and measured 4 hrs post LPS challenge by Griess assay (reference value: 6.95 +/- 1.81 uM). Format: functional.
The test system of data set [6] is Mus musculus. Briefly: Antiarthritic activity in DBA/1J mouse collagen-induced arthritis model assessed as reduction in TNFalpha level at 3 to 30 mg/kg, po administered once daily for 49 days starting from onset of disease and measured after 3 to 49 days of disease onset by ELISA method. Format: functional, organism-based. A general note: An ELISA detects its analyte on a solid surface through an enzyme-linked reagent.

The nature of data set [7]: Solubility in SGF solution. Format: physicochemical.
Data set [8] concerns THP-1. The data set is described as follows: Cytotoxicity against human THP1 cells after 24 hrs by MTT assay. The settings on record: THP-1, 24 h. It counts as cell-based. On the technique in general: Formazan colour is commonly taken as a measure of viable cells.
Data set [9] deals with Mus musculus. The data set is described as follows: Antiarthritic activity in BALB/c mouse assessed as reduction in SRBC-induced blood IFNgamma level administered orally once daily for 14 days measured 4 hrs post last dose by ELISA method. Format: functional, organism-based.
The subject of data set [10] is Mus musculus. Briefly: Antiarthritic activity in DBA/1J mouse collagen-induced arthritis model assessed as reduction in anticollagen antibody IgG2a level at 3 to 30 mg/kg, po administered once daily for 49 days starting from onset of disease and measured after 49 days of disease onset by ELISA method. It counts as functional, organism-based.

Active and inactive are the calls of the source. The calls are words filed in the database; no cut-off is given here. Where only a bound is given, the exact number is not on record here.

Broadly, the inhibition in vivo is how much of the control response was suppressed. What is called solubility is the concentration that dissolves in the medium under given conditions. Lower therefore signals a poorly soluble substance. One may read the IC50 as the concentration at which inhibition is half-maximal. Read a high IC50 as lower potency. In the case of `CCN(CC)Cc1c(O)c(OC)c(O)c2c1C(=O)O[C@@H]1[C@@H](O)[C@H](O)[C@@H](CO)O[C@@H]21`, in data set [1], the selectivity ratio was greater than 400. The Activity turned out to be 585 pg/mL in data set [2] and 5 µM in [5]. Further, in [3], the inhibition in vivo at 30 mg/kg came out at 28%. In addition, the inhibition entry in data set [4], in data set [6] and in data set [10] was “Active” in each case. In data set [7], the solubility is greater than 1500 µg/mL. The same molecule returned a half-maximal inhibitory concentration (IC50) in [8] of 110 µM. Also, in [9], the inhibition entry was “Dose-dependent effect”.
